Measured values: patent publication US20240182785A1, “COMPOUND, COMPOSITION, CURED PRODUCT, OPTICALLY ANISOTROPIC BODY, OPTICAL ELEMENT, AND LIGHT GUIDE ELEMENT” (FUJIFILM Corporation, priority 2021, published 2024)

What was measured:
Type in all cases: physicochemical
[1] = Evaluation of liquid crystallinity (hot stage, polarization microscope); parameters: key: A case of having liquid crystallinity was evaluated as A; a case of having no liquid crystallinity was evaluated as B; conditions: heated on a hot stage
Experimental: The respective compounds (the compounds A-1 to A-11 and the compounds B-1 and B-2) were heated on a hot stage and observed with a polarization microscope, and the phase transition temperature was measured to evaluate the presence or absence of the liquid crystallinity. A case of having liquid crystallinity was evaluated as A, and a case of having no liquid crystallinity was evaluated as B. The results are shown in Table 1.
Since the compound A-8 has melting points of 200° C. or higher and undergoes a polymerization reaction during heating, liquid crystallinity could not be evaluated.

[2] = Measurement of Δn (refractive index anisotropy), wedge-shaped liquid crystal cell; conditions: 550 nm, 30° C. or lower limit temperature of nematic phase +0 to 10° C.; some compounds extrapolated from 1/2 mixture with L-1-1
Experimental: The Δn of each of the compounds (the compounds A-1 to A-11 and the compounds B-1 and B-2), which are the compounds to be measured, was measured by a method using a wedge-shaped liquid crystal cell described on page 202 in the Liquid crystal handbook (edited by the liquid crystal handbook editorial board, published by Maruzen Co., Ltd., 2000). Δn was defined as a measured value at a wavelength of 550 nm at 30° C. or the lower limit temperature of the nematic phase +0° C. to 10° C. In a case of a compound which is liable to crystallize or a compound having no liquid crystallinity, evaluation was carried out using a mixture thereof with the other liquid crystal compound, and Δn was estimated from the extrapolated value of the measured value thereof. The following L-1-1 was used as the other liquid crystal compound. As the above mixture, a mixture obtained by mixing at a ratio of the compound to be measured/the L-1-1=1/2 (in terms of mass ratio) was used.
A case where Δn was 0.40 or more was evaluated as A, a case where Δn was 0.35 or more and less than 0.40 was evaluated as B, a case where Δn was 0.30 or more and less than 0.35 was evaluated as C, and a case where Δn was less than 0.30 was evaluated as D. The results are shown in Table 1.

[3] = Evaluation of solubility in cyclopentanone; conditions: precipitation concentration in cyclopentanone at 25° C.
Experimental: The solubility of each of the compounds (the compounds A-1 to A-11 and the compounds B-1 and B-2) in cyclopentanone was evaluated.

[4] = Evaluation of durability of optically anisotropic layer (moisture-heat resistance test); conditions: rate of change in Re of cured layer (25 parts compound, 75 parts L-1), 136 hours at 100° C., humidity 95%
Experimental: (§1) As shown below, the light resistance and the durability of the optically anisotropic layer produced using the composition containing each of the compounds A-1 to A-11 and the compounds B-1 and B-2 were evaluated.
(§2) A coating liquid having the following composition was prepared and applied by spin-coating, onto a rubbing-treated glass attached with an alignment film. Each composition was irradiated with ultraviolet rays of 300 mJ/cm^2 through a filter that cuts light having a wavelength of 350 nm or less on a hot plate which had been heated to a temperature at which a nematic phase is shown, whereby an optically anisotropic layer for a light resistance/durability test was produced.
(§3) The polymerizable liquid crystal compound L-1 is a mixture obtained by mixing at a
(§4) ratio of the following L-1-1/L-1-2/L-1-3=84/14/2 (in terms of mass ratio).
(§5) Rate of change in Re (%)=[100×{|(Re after test)−(Re before test)|}/(Re before test)]
(§6) Re was measured with Axoscan manufactured by Axometrics Inc. at a wavelength of 550 nm, and the measurement temperature was set to room temperature.
The produced optically anisotropic layer was allowed to be left for 136 hours at 100° C. and a humidity of 95%, whereby a moisture-heat resistance test was carried out. The rate of change in Re before and after the durability test was evaluated, the durability in a case where the rate of change in Re was less than 10% was evaluated as A, and the durability in a case where the rate of change in Re was 10% or more was evaluated as B. The smaller the rate of change in Re, the more excellent the durability.

[5] = Evaluation of light resistance of optically anisotropic layer (Super Xenon Weather Meter); conditions: rate of change in Re of cured layer (25 parts compound, 75 parts L-1), 5 million lx, 50 hours, 63° C., 50% RH, oxygen-blocking
Experimental: as §1, §2, §3, §4
The produced optically anisotropic layers for light resistance/durability tests were irradiated with light using a Super Xenon Weather Meter SX75 manufactured by Suga Test Instruments Co., Ltd. Using KU-1000100 manufactured by King Seisakusho Co., Ltd. as a UV cut filter, a light resistance test was carried out by irradiation with 5 million lx of light for 50 hours under an oxygen-blocking condition. The temperature of the specimen to be tested (the temperature inside the test device) was set to 63° C. The relative humidity in the test device was 50% RH.
The Re of the optically anisotropic layer before and after the light resistance test was measured, the light resistance in a case where the rate of change in Re described below was less than 10% was evaluated as A, and the light resistance in a case where the rate of change in Re was 10% or more was evaluated as B. The smaller the rate of change in Re, the more excellent the light resistance.
as §5, §6

For `C=CC(=O)OCCc1ccc(C#Cc2ccc(-c3ccc(COc4ccc(C#Cc5ccc(CCOC(=O)C=C)cc5)cc4C(=O)OC)cc3)cc2)cc1` [Compound A-1], the Liquid crystallinity [1] was “A”, the Δn [2] was “B (a case where Δn was 0.35 or more and less than 0.40 was evaluated as B)” and the Solubility [3] was “A (the solubility in a case where the precipitation concentration was 5% by mass or more was evaluated as A)”. The Durability [4] was “A (the durability in a case where the rate of change in Re was less than 10% was evaluated as A)” and the Light resistance [5] was “A (the light resistance in a case where the rate of change in Re described below was less than 10% was evaluated as A)”.
In the case of `C=CC(=O)OCCSc1ccc(C#Cc2ccc(OCc3ccc4cc(C#Cc5ccc(SCCOC(=O)C=C)cc5)ccc4c3)c(C(=O)OC)c2)cc1` [Compound A-2], the Liquid crystallinity [1] was “A”, the Δn [2] was “A (A case where Δn was 0.40 or more was evaluated as A)” and the Solubility [3] was “A (the solubility in a case where the precipitation concentration was 5% by mass or more was evaluated as A)”. For the same compound, the Durability [4] was “A (the durability in a case where the rate of change in Re was less than 10% was evaluated as A)” and the Light resistance [5] was “A (the light resistance in a case where the rate of change in Re described below was less than 10% was evaluated as A)”.
With `C=CC(=O)OCCSc1ccc(C#Cc2ccc(OCc3ccc4cc(C#Cc5ccc(SCCOC(=O)C=C)cc5)ccc4c3)c(C(=O)OCC)c2)cc1` [Compound A-3] the Liquid crystallinity [1] was “A”, the Δn [2] was “A (A case where Δn was 0.40 or more was evaluated as A)” and the Solubility [3] was “A (the solubility in a case where the precipitation concentration was 5% by mass or more was evaluated as A)”. For the same compound, the Durability [4] was “A (the durability in a case where the rate of change in Re was less than 10% was evaluated as A)” and the Light resistance [5] was “A (the light resistance in a case where the rate of change in Re described below was less than 10% was evaluated as A)”.
In the case of `C=CC(=O)OCCSc1ccc(C#Cc2cc(C)c(OCc3ccc4cc(C#Cc5ccc(SCCOC(=O)C=C)cc5)ccc4c3)c(C)c2)cc1` [Compound A-4], the Liquid crystallinity [1] was “A”, the Δn [2] was “A (A case where Δn was 0.40 or more was evaluated as A)” and the Solubility [3] was “A (the solubility in a case where the precipitation concentration was 5% by mass or more was evaluated as A)”. For the same compound, the Durability [4] was “A (the durability in a case where the rate of change in Re was less than 10% was evaluated as A)” and the Light resistance [5] was “A (the light resistance in a case where the rate of change in Re described below was less than 10% was evaluated as A)”.
In the case of `C=CC(=O)OCCSc1ccc(C#Cc2ccc(-c3ccc(COc4ccc(C#Cc5ccc(SCCOC(=O)C=C)cc5)cc4C(=O)OC)cc3)cc2)cc1` [Compound A-6], the Liquid crystallinity [1] was “A”, the Δn [2] was “A (A case where Δn was 0.40 or more was evaluated as A)” and the Solubility [3] was “A (the solubility in a case where the precipitation concentration was 5% by mass or more was evaluated as A)”. The Durability [4] was “A (the durability in a case where the rate of change in Re was less than 10% was evaluated as A)” and the Light resistance [5] was “A (the light resistance in a case where the rate of change in Re described below was less than 10% was evaluated as A)”.
With `COC(=O)c1cc(C#Cc2ccc(CCOC(C)=O)cc2)ccc1OCc1ccc(-c2ccc(C#Cc3ccc(CCOC(C)=O)cc3)cc2)cc1` [Compound A-7] the Liquid crystallinity [1] was “A”, the Δn [2] was “B (a case where Δn was 0.35 or more and less than 0.40 was evaluated as B)” and the Solubility [3] was “A (the solubility in a case where the precipitation concentration was 5% by mass or more was evaluated as A)”. For the same compound, the Durability [4] was “B (the durability in a case where the rate of change in Re was 10% or more was evaluated as B)” and the Light resistance [5] was “A (the light resistance in a case where the rate of change in Re described below was less than 10% was evaluated as A)”.
In the case of `C=CC(=O)OCCSc1ccc(C#Cc2ccc(OCc3ccc4cc(C#Cc5ccc(SCCOC(=O)C=C)cc5)ccc4c3)cc2)cc1` [Compound A-8], the Δn [2] was “A (A case where Δn was 0.40 or more was evaluated as A)”, the Solubility [3] was “B (the solubility in a case where the precipitation concentration was less than 5% by mass was evaluated as B)” and the Durability [4] was “A (the durability in a case where the rate of change in Re was less than 10% was evaluated as A)”. For the same compound, the Light resistance [5] was “A (the light resistance in a case where the rate of change in Re described below was less than 10% was evaluated as A)”.
For `C=CC(=O)OCCCCSc1nc2ccc(C#Cc3ccc(OCc4ccc5cc(C#Cc6ccc7nc(SCCCCOC(=O)C=C)sc7c6)ccc5c4)c(C(=O)OC)c3)cc2s1` [Compound A-9], the Liquid crystallinity [1] was “A”, the Δn [2] was “A (A case where Δn was 0.40 or more was evaluated as A)” and the Solubility [3] was “B (the solubility in a case where the precipitation concentration was less than 5% by mass was evaluated as B)”. The Durability [4] was “A (the durability in a case where the rate of change in Re was less than 10% was evaluated as A)” and the Light resistance [5] was “B (the light resistance in a case where the rate of change in Re was 10% or more was evaluated as B)”.
In the case of `C=CC(=O)OCCSc1ccc(C#Cc2ccc(OC(=O)c3ccc4cc(C#Cc5ccc(SCCOC(=O)C=C)cc5)ccc4c3)c(C(=O)OC)c2)cc1` [Compound A-10], the Liquid crystallinity [1] was “A”, the Δn [2] was “A (A case where Δn was 0.40 or more was evaluated as A)” and the Solubility [3] was “A (the solubility in a case where the precipitation concentration was 5% by mass or more was evaluated as A)”. For the same compound, the Durability [4] was “A (the durability in a case where the rate of change in Re was less than 10% was evaluated as A)” and the Light resistance [5] was “B (the light resistance in a case where the rate of change in Re was 10% or more was evaluated as B)”.
In the case of `C=CC(=O)OCCc1ccc(C#Cc2ccc(OCc3ccc4cc(C#Cc5ccc(CCOC(=O)C=C)cc5)ccc4c3)c(C(=O)OC)c2)cc1` [Compound A-11], the Liquid crystallinity [1] was “A”, the Δn [2] was “B (a case where Δn was 0.35 or more and less than 0.40 was evaluated as B)” and the Solubility [3] was “A (the solubility in a case where the precipitation concentration was 5% by mass or more was evaluated as A)”. For the same compound, the Durability [4] was “A (the durability in a case where the rate of change in Re was less than 10% was evaluated as A)” and the Light resistance [5] was “A (the light resistance in a case where the rate of change in Re described below was less than 10% was evaluated as A)”.
With `CC(=O)OCCCCCCCCCCOc1ccc(C#Cc2ccc(OC(=O)c3ccc(C#Cc4ccc(OCCCCCCCCCCOC(C)=O)c(F)c4)cc3)cc2)cc1F` [Compound B-1, reference compound] the Liquid crystallinity [1] was “A”, the Δn [2] was “D (a case where Δn was less than 0.30 was evaluated as D)” and the Solubility [3] was “A (the solubility in a case where the precipitation concentration was 5% by mass or more was evaluated as A)”. For the same compound, the Durability [4] was “A (the durability in a case where the rate of change in Re was less than 10% was evaluated as A)” and the Light resistance [5] was “B (the light resistance in a case where the rate of change in Re was 10% or more was evaluated as B)”.
